Source: ChEMBL document CHEMBL1777769, “Synthesis and characterisation of a novel tubulin-directed DO3A-colchicine conjugate with potential theranostic features” (Bioorg Med Chem Lett, 2011)
Activity calls are given as the source filed them. No cut-off for these calls is given here.

Legend:
Type in all cases: functional, cell-based
[1] = tested on: OVCAR-3; experiment: Cytotoxicity against human OVCAR3 cells assessed as change in cell shape after 24 hrs by trypan blue exclusion assay
[2] = tested on: OVCAR-3; experiment: Cytotoxicity against human OVCAR3 cells assessed as cell death after 24 hrs by trypan blue exclusion assay
[3] = tested on: OVCAR-3; experiment: Cytotoxicity against human OVCAR3 cells assessed as reduction in viable cells after 24 hrs by trypan blue exclusion assay

Row | SMILES | Activity [1] | Activity [2] | Activity [3]
1 | COc1cc2c(c(OC)c1OC)-c1ccc(OC)c(=O)cc1[C@@H](NC(=O)CN1CCN(CC(=O)O)CCN(CC(=O)O)CCN(CC(=O)O)CC1)CC2 | Active | Active | –
2 | COc1cc2c(c(OC)c1OC)-c1ccc(OC)c(=O)cc1[C@@H](NC(C)=O)CC2 | Active | Active | Active
